Data on 90 compounds can be found in PubChem BioAssay AID2823 (Broad Institute, 2010).

Calls of active or inactive are those of the source. The rule behind the calls is not given here.

This test concerns the target RanGTP-importin-beta complex (human Ran / KPNB1). Nature of the test: Ran–importin-beta interaction inhibitors, confirmation, biochemical, FRET, CFP/YFP, cell-free homogeneous (AID 2823). The conditions noted are these: CFP-Ran/YFP-importin-beta FRET ratio.
A word on the IC50: it is the midpoint of a concentration-inhibition curve. Take `O=c1nc(-c2ccccc2Cl)c2cc(F)ccc2[nH]1`: the IC50 was > 50 µM (inactive).
Then `COC(=O)C1=CN(Cc2ccccc2)C=C(C(=O)OC)C1c1ccc(O)c(OC)c1`, with > 50 µM (inactive); and `COc1ccccc1C(=O)NC(=S)Nc1ccc(N2CCCC2)cc1`, with > 50 µM (inactive).
Take `Cc1cccc(C)c1N1CCN(S(=O)(=O)c2ccc(F)cc2)CC1`: the IC50 was > 50 µM (inactive).
Turning to `O=C(NC1CCCCCC1)C(=S)NCCc1ccccc1`, the IC50 is > 50 µM (inactive).
Then `COc1ccc(Cl)cc1S(=O)(=O)Nc1noc2ccccc12`, with > 50 µM (inactive); and `Cc1cccc(NC(=O)c2cc(S(=O)(=O)N(C)c3ccc(F)cc3)ccc2Cl)n1`, with > 50 µM (inactive).
Then `COc1ccccc1C1C(C(N)=O)=C(C)Nc2ncnn21` (stereo not given), with > 50 µM (inactive).
The figure for `CC(C)(C)NC(=O)C(c1ccco1)N(Cc1ccc(F)cc1)C(=O)c1snc(C(N)=O)c1N` (stereo not given) is > 50 µM (inactive).
As for `Cc1ccc(S(=O)(=O)NC(C(=O)Oc2ccc3ccc(=O)oc3c2)c2ccccc2)cc1` (stereo not given), the IC50 was 24.8 µM.
Consider `COc1ccc(NS(=O)(=O)c2cc(NC(=O)c3cccs3)ccc2N2CCOCC2)cc1`, for which the IC50 is > 50 µM (inactive).
The figure for `COC(=O)c1cccnc1NC(=S)NNC(=O)c1ccccc1` is > 50 µM (inactive); for `O=C(NC1=NCCS1)c1cc(-c2cccnc2)nc2ccccc12` it is > 50 µM (inactive); for `Cc1cc2c(c(=O)n1C1CC1)C(c1cccc(Cl)c1)C(C#N)=C(N)O2` (stereo not given) it is > 50 µM (inactive).
Regarding `COc1ccc(Oc2nc3c(C)cccn3c(=O)c2/C=C(\C#N)C(N)=O)cc1`, the IC50 was 9.6 µM.
Consider `Clc1ccc(/C=C/c2ncc3ccccn23)cc1`, for which the IC50 is 12.5 µM.
Then `COc1ccc2cc(C(C)=O)c(=O)oc2c1`, with 32.2 µM.
Take `COC(=O)C(C)Oc1ccc2c(c1)O/C(=C\c1ccco1)C2=O` (stereo not given): the IC50 is 15.5 µM.
As for `COC(=O)[C@@H]1[C@H]2C[C@H]3c4[nH]c5ccccc5c4CCN3C[C@@H]2CC[C@@H]1O`, the IC50 was > 50 µM (inactive).
The figure for `CCOc1ccc(OCc2ccc(C(=O)N(CC)CC)cc2)cc1` is > 50 µM (inactive); for `COc1ccc(-n2c(C)cc(/C=C3/SC(=S)N(C)C3=O)c2C)cc1` it is > 50 µM (inactive).
The figure for `CC(=O)N1CN2CN(C(C)=O)CC(C(=O)c3ccccc3)(C2)C1` is > 50 µM (inactive).
Then `COCCOC(=O)C1=C(C)NC(=O)NC1c1cccc2ccccc12` (stereo not given), with > 50 µM (inactive); and `CC(C)Sc1nc(N2CCOCC2)c2c3c(sc2n1)COC(C)(C)C3`, with > 50 µM (inactive); and `O=C(Cc1ccccc1)NNc1c2ccccc2nc2ccccc12`, with > 50 µM (inactive).
Take `COc1cccc(C(=O)/C=C/Nc2cc(C)ccc2O)c1`: the IC50 is > 50 µM (inactive).
As for `N#Cc1c2ncn(CC(=O)c3ccc(Br)cc3)c(=O)c2c2n1CCC2`, the IC50 is > 50 µM (inactive).
For `Cc1cc(S(=O)(=O)N2CCN(c3c(C)cccc3C)CC2)ccc1F`, the IC50 is > 50 µM (inactive).
The figure for `CCOc1ccc(Nc2c3ccccc3nc3ccccc23)cc1` is > 50 µM (inactive); for `Oc1ccc(Br)cc1/C=N/n1c(-c2ccccc2)n[nH]c1=S` it is > 50 µM (inactive); for `O=[N+]([O-])c1ccc(S(=O)(=O)Nc2nnc(C3CCCCC3)s2)cc1` it is > 50 µM (inactive).
Take `Cc1ccc(S(=O)(=O)c2cc3c(=O)n4cccc(C)c4nc3n(C3CCCCC3)c2=N)cc1`: the half-inhibitory concentration (IC50) is 1.2 µM.
The figure for `O=C(CSCC(=O)NC1CC1)Nc1ccccc1` is > 50 µM (inactive).
Consider `CC(C)(C)c1ccc(S(=O)(=O)NCC(=O)N2CCN(C(=O)c3ccco3)CC2)cc1`, for which the IC50 is > 50 µM (inactive).
Then `CN(C)/C=C/C(=O)/C=C/c1ccc(Cl)cc1`, with > 50 µM (inactive); and `COc1ccc(CCNc2nc3ccccc3n3nnnc23)cc1OC`, with 40.1 µM; and `COc1cc(C(=O)N2CCCN(c3nc4cc(C)ccc4cc3C#N)CC2)cc(OC)c1OC`, with 10.9 µM.
With `O=C(CCN1CCC(c2ccc(Cl)s2)=N1)c1ccc(Cl)s1`, the IC50 is > 50 µM (inactive).
With `Cn1nnnc1SCC(=O)Nc1nn(-c2ccccc2)nc1C(N)=O`, the IC50 is > 50 µM (inactive).
Then `Nc1c(C(=O)NCc2ccccc2)c2nc3ccccc3nc2n1-c1ccc2c(c1)OCO2`, with 15.2 µM.
On to `CC1(C)CC(=O)NC=C(c2ccccc2)C1`, for which the IC50 is > 50 µM (inactive).
For `O=C(Cc1cc(=O)oc2cc(O)ccc12)N[C@@H](Cc1c[nH]c2ccccc12)C(=O)O`, the IC50 is > 50 µM (inactive).
As to `COC(=O)C1=CN(Cc2cccs2)C=C(C(=O)OC)C1c1ccc(OC)cc1OC`, the IC50 is 6.08 µM.
The figure for `CCOC(=O)/C(C#N)=C/c1ccc(N2CCN(C)CC2)cc1` is 16 µM.
The figure for `Cc1ccc2cc(C#N)c(N3CCCN(C(=O)C4CCCO4)CC3)nc2c1` (stereo not given) is 20.5 µM; for `CC1CCN(c2nc3ccccc3nc2C(C#N)C(=O)OC2CCCCC2)CC1` (stereo not given) it is > 50 µM (inactive); for `CC1CC(=O)N(CC(=O)Nc2cccc(Cl)c2)c2ccccc2S1(=O)=O` (stereo not given) it is > 50 µM (inactive).
For the compound `CC1=NN(C(=O)c2ccccc2)C(O)(c2ccc(Br)cc2)C1` (stereo not given), the IC50 is > 50 µM (inactive).
In the case of `NC(N)=N/N=C/c1ccc(N(c2ccccc2)c2ccccc2)cc1`, the IC50 is 16.8 µM.
Consider `Cc1ccc(-n2c(O)c(/C=N/N3CCCCCC3)c(=O)[nH]c2=O)cc1C`, for which the IC50 was > 50 µM (inactive).
For `CCOC(=O)c1c(C)oc2cc(Br)c(OCC(N)=O)cc12`, the IC50 is > 50 µM (inactive).
The figure for `CC#CC(=O)N1CCC(C(=O)Nc2ccc(Oc3ccccc3)nc2)CC1` is > 50 µM (inactive).
Then `Cc1cccn2c(=O)c(/C=C(\C#N)C(N)=O)c(Oc3ccccc3)nc12`, with 1.96 µM; and `CCC(=O)NCCNc1nc2cc(C)c(C)cc2cc1C#N`, with 16 µM.
`CCN(C(=O)c1c(C)cc(=O)oc1C)c1ccc2c(c1)OCO2`: the IC50 is > 50 µM (inactive).
Take `O=C1/C(=C/c2cccs2)Sc2ccccc21`: the IC50 was > 50 µM (inactive).
`COc1cc(-c2nc3cnccn3c2Nc2ccc(C(C)C)cc2)ccc1O`: the IC50 was > 50 µM (inactive).
The figure for `CCc1ccc(N2C(=O)NC(=O)/C(=C\c3cc(C)n(-c4cc(C(=O)O)cc(C(=O)O)c4)c3C)C2=O)cc1` is > 50 µM (inactive); for `CCN1/C(=C2\SC(=S)N(Cc3ccccc3)C2=O)Sc2ccccc21` it is > 50 µM (inactive); for `Cc1ccccc1-n1cnc2cc(NCc3cccs3)ccc21` it is > 50 µM (inactive).
Then `CCn1c2ccccc2c2cc(NC(=O)CNC)ccc21`, with > 50 µM (inactive); and `O=c1[nH]c(Nc2ccccc2Cl)cc2ccccc12`, with > 50 µM (inactive).
As to `CC(=O)c1sc2nc(C)c3c(c2c1N)CCCC3`, the concentration for half-maximal inhibition (IC50) is 15.3 µM.
The figure for `CC(=O)N1c2ccc(S(=O)(=O)N3CCC(C(=O)Nc4cccc(Cl)c4)CC3)cc2CC1C` (stereo not given) is > 50 µM (inactive).
The figure for `CCc1cc(=O)oc2c(CN3CCN(C)CC3)c(O)c(Cl)cc12` is 27.1 µM; for `N#C/C(=C\c1ccc(-c2ccc(F)cc2)o1)C(=O)Nc1nc(-c2cccs2)cs1` it is > 50 µM (inactive); for `COc1ccccc1C(=O)NCCNc1nc2cc(C)cc(C)c2cc1C#N` it is 39.5 µM.
Then `COc1ccc(-c2ccc(-c3noc(-c4ccccc4C)n3)c(OC)n2)cc1`, with > 50 µM (inactive).
Take `Cc1c(Br)c(=O)oc2c(Br)c(O)c(O)cc12`: the IC50 is 26.3 µM.
With `Cc1nc2ccccc2c2oc(C(=O)NCCCN3CCC(C)CC3)cc12`, the IC50 is > 50 µM (inactive).
The figure for `CC1(C)CC(=O)CC(=Nc2ccc3[nH]c(=O)[nH]c3c2)C1` is > 50 µM (inactive); for `N#Cc1c(N)[nH]c(=S)c(C#N)c1-c1ccccc1` it is > 50 µM (inactive).
With `Oc1nc(Nc2ccc(F)cc2)sc1/C=C1\C=Nc2ccccc21`, the IC50 was > 50 µM (inactive).
Take `CCCCc1c(C)c(C#N)c2nc3ccccc3n2c1Nc1c(C)n(C)n(-c2ccccc2)c1=O`: the concentration for half-maximal inhibition (IC50) was 45 µM.
The figure for `COc1cccc(NC(=O)Nc2ccc3c(c2)N(C)C(=O)CS3)c1` is > 50 µM (inactive).
For `CCc1ccc(-c2nc(CSCC(=O)N3CCN(c4ccccn4)CC3)c(C)o2)cc1`, the IC50 was > 50 µM (inactive).
Then `CCC(=O)Nc1c(S(=O)(=O)c2ccccc2)c2nc3ccccc3nc2n1Cc1ccccc1`, with 20.9 µM.
Then `Cn1c(=O)oc2cc(S(=O)(=O)NCCC(=O)N3CC=C(c4ccccc4)CC3)ccc21`, with > 50 µM (inactive); and `Cc1ccc(N=Cc2cc3c(cc2O)OC(N)=C(C#N)C3c2ccccc2)cc1` (stereo not given), with > 50 µM (inactive); and `CCOCCCNC(=S)NCCCNc1nc2cc3c(cc2cc1C#N)OCO3`, with 9.41 µM.
`CN(C)/C=N/c1nc2nccc(-c3cccs3)n2n1`: the half-maximal inhibitory concentration (IC50) is 38.5 µM.
Turning to `Cc1ccc(N=Cc2cc3c(cc2[N+](=O)[O-])OCO3)cc1[N+](=O)[O-]`, the IC50 was > 50 µM (inactive).
The figure for `COc1ccc(OC)c(N(CC(=O)O)S(=O)(=O)c2ccc(OC)c(OC)c2)c1` is > 50 µM (inactive); for `CCOCCCNC(=O)NC(=O)CN1CCN(S(=O)(=O)c2ccc3c(c2)OCCO3)CC1` it is > 50 µM (inactive); for `Cc1sc(NC(=O)c2oc3ccccc3c2C)c(C#N)c1C` it is > 50 µM (inactive).
Consider `O=[N+]([O-])c1ccc(Nc2c3ccccc3nc3ccccc23)cc1`, for which the IC50 was > 50 µM (inactive).
Then `COCCOC(=O)C1=C(C)OC(N)=C(C(=O)OC)C12C(=O)Nc1ccccc12` (stereo not given), with > 50 µM (inactive).
The figure for `Cc1cc(NC(=O)c2sc3ccccc3c2O)no1` is 26.3 µM; for `Cc1ccc(C(=O)Nc2ncc(Cc3ccc(F)cc3)s2)o1` it is > 50 µM (inactive); for `O=C(c1cc2c(=O)n3ccccc3nc2s1)N1CCN(c2cccc(Cl)c2)CC1` it is > 50 µM (inactive).
